Measurements: patent US5420276A, “Analogs of oxetanyl purines and pyrimidines” (Abbott Laboratories, priority 1993, dated 1995)
In brackets after ≈: the same amount, converted by molar mass. Each block holds one molecule with its values, some of them ahead of it.

Experiments:
Type in all cases: cell-based
[1] = MTT test compound cytotoxicity in human foreskin fibroblasts; conditions: hff cells, read-out: MTT assay (Percent of control)
Procedure: (§1) For the plaque reduction assay, sixth to twelfth passage human foreskin fibroblasts were seeded in wells of 12-well tissue culture plates and incubated at 37° C. in a humidified atmosphere containing 2% CO2 in air. Subconfluent HFF were rinsed with MEM and exposed to 0.5 ml/well of a suspension of VZV diluted in MEM+2% FBS for 2 hours at 37° C. Following the virus adsorption period, the inocula were removed and the infected cell layers were rinsed with MEM. Triplicate VZV-infected cell culture wells were treated with 1.0 ml of each concentration of test compound (in MEM+2% FBS). Six untreated virus-infected cell cultures and triplicate untreated uninfected cell cultures were fed with 1.0 ml of MEM+2% FBS to serve as controls. Wells containing uninfected HFF were treated with each concentration of test compound to monitor the test compound cytotoxicity. The 12-well plates were incubated at 37° C. in the CO2 incubator. At 48 hours post-virus infection (p.i.), fluids in all plate wells were replaced with fresh test compound and/or culture medium.
The test compound cytotoxicity control cultures were examined microscopically for gross morphologic changes, then treated with MTT and 30% SDS. The blue color of the MTT formazan was measured spectrophotometrically at 570 nm. Test compound cytotoxicity was determined by comparing the absorbance (O.D.) of each test compound control with the mean O.D. of the cell control cultures and expressed as percent of control.

[2] = tested on: Human Cytomegalovirus (HCMV) strain AD169; assay: HCMV virus yield reduction assay; conditions: Human betaherpesvirus 5, AD169, 144 h, MRC5 cells; for log reduction at 3.2 µg/mL: 3.2 μg/ml; for log reduction at 10 µg/mL: 10 μg/ml
Procedure: Human diploid embryonic lung (MRC5) cells were grown in 35 mm wells of 6-well tissue culture plates. Subconfluent cell monolayers were rinsed with phosphate-buffered saline (PBS) and were exposed to 0.5 ml/well of HCMV (strain AD169) suspension for 1.5 hours at 37° C. The virus suspension was diluted in MEM+2% fetal bovine serum (FBS) to yield a multipicity of infection (MOI) of approximately 0.1 plaque forming units (PFU)/cell. Following the virus adsorption period, the inocula were removed and infected cell layers were rinsed with PBS. Aliquiots (2.0 ml) of each test drug concentration (dissolved in MEM supplemented with 2% FBS) were dispensed into triplicate cell cultures: two virus-infected cultures and one uninfected cytotoxicity control culture (exposed to medium without virus for 1.5 hours). Untreated virus-infected control cultures and untreated, uninfected cell control cultures were fed with medium alone. The culture plates were incubated at 37° C. in a humidified atmosphere of 2% CO2 in air. All cell culture fluids were replaced with fresh drug and medium 48 hours postinfection (p.i.). On Day 6 p.i., the cell layers were examined microscopically for cytopathogenic effect (CPE) and drug cytotoxicity. The test and virus control cultures were then harvested by subjecting the cell layers to one cycle of freeze-thawing. The cellular material was scraped into the ambient medium and the contents from replicate cultures were pooled, dispensed into cryotubes and stored at -135° C. The harvested test and virus control samples were thawed and the infectious virus yield was determined by plaque assay in MRC5 cells grown in 12-well cluster plates. Inhibition of HCMV replication by each test compound was determined by comparing the progeny virus yields in the drug-treated cultures with the progeny virus yield in the untreated, virus-infected control cultures.

[3] = tested on: Varicella-Zoster Virus (VZV) clinical isolate DM625; assay: VZV plaque reduction assay; conditions: Human alphaherpesvirus 3, 144 h, VZV in HFF; for EC50: minimum concentration required to inhibit plaque formation by 50%, read-out: MIC50
Procedure: The compounds of the invention were evaluated for selective activity against varicella zoster virus (VCV) utilizing a plaque reduction assay procedure. The challenge virus was a clinical isolate designated DM625, obtained from Dr. Richard Whitley of the University of Alabama Hospitals, Birmingham, Ala. The virus had been passaged and titrated in cultures of human foreskin fibroblasts (HFF).
as §1
Six days p.i., the VZV plaques were counted (unstained, low magnification).The effect of each concentration of test compound on plaque formation was determined by comparing the mean number of plaques in the replicate test compound-treated cultures with the mean plaque counts of the untreated virus control cultures.
The MIC50 value is the minimum concentration of test Compound required to inhibit plaque formation by 50%.

EC50 [3]: 0.07 µg/mL (≈ 0.308 µM)
SMILES: Nc1ccn([C@@H]2O[C@H](CO)[C@H]2CO)c(=O)n1 [Example 22, 1-([2'R,3'R,4'S]-3',4'-Bis(hydroxymethyl)-2'-oxetanyl)cytosine]
viability at 0.1 µM [1]: 88%
viability at 0.32 µM [1]: 81%
viability at 1 µM [1]: 77%
viability at 3.2 µM [1]: 76%
log reduction at 0.032 µg/mL ([2]; 0.032 μg/ml): 0.8
log reduction at 0.1 µg/mL ([2]; 0.1 μg/ml): 1.4
log reduction at 0.32 µg/mL ([2]; 0.32 μg/ml): 1.9
log reduction at 1 µg/mL ([2]; 1.0 μg/ml): 4.1
log reduction at 3.2 µg/mL [2]: > 4.4
log reduction at 10 µg/mL [2]: > 4.4
inhibition at 0.032 µM [3]: 29%
inhibition at 0.1 µM [3]: 86%
inhibition at 0.32 µM [3]: 100%
inhibition at 1 µM [3]: 100%
inhibition at 3.2 µM [3]: 100%

EC50 [3]: 19.4 µg/mL (≈ 85 µM)
SMILES: O=c1ccn([C@@H]2O[C@H](CO)[C@H]2CO)c(=O)[nH]1 [Example 23, 1-([2'R,3'R,4'S]-3',4'-Bis(hydroxymethyl)-2'-oxetanyl)uracil]
viability at 3.2 µM [1]: 82%
viability at 10 µM ([1]; 10 μM): 84%
viability at 32 µM ([1]; 32 μM): 87%
viability at 100 µM ([1]; 100 μM): 88%
viability at 320 µM ([1]; 320 μM): 82%
log reduction at 3.2 µg/mL [2]: 0.2
log reduction at 10 µg/mL [2]: 0.4
log reduction at 32 µg/mL ([2]; 32 μg/ml): 0.5
log reduction at 100 µg/mL ([2]; 100 μg/ml): 0.9
log reduction at 320 µg/mL ([2]; 320 μg/ml): 1.9
inhibition at 1 µM [3]: 22%
inhibition at 3.2 µM [3]: 22%
inhibition at 10 µM ([3]; 10 μM): 34%
inhibition at 32 µM ([3]; 32 μM): 84%
inhibition at 100 µM ([3]; 100 μM): 100%
inhibition at 320 µM ([3]; 320 μM): 100%

EC50 [3]: 0.0032 µg/mL (≈ 0.00961 µM)
SMILES: O=c1[nH]c(=O)n([C@@H]2O[C@H](CO)[C@H]2CO)cc1C=CBr [Example 44, 1-([2'R, 3'R, 4'S]-3',4'-Bis(hydroxymethyl)-2'-oxetanyl)-5-(2-bromo-1-vinyl)uracil]
viability at 0.0001 µM ([1]; 0.0001 μM): 99%
viability at 0.00032 µM ([1]; 0.00032 μM): 98%
viability at 0.001 µM ([1]; 0.001 μM): 93%
viability at 0.0032 µM ([1]; 0.0032 μM): 100%
viability at 0.01 µM ([1]; 0.01 μM): 97%
viability at 0.032 µM ([1]; 0.032 μM): 94%
viability at 0.1 µM [1]: 92%
viability at 0.32 µM [1]: 92%
viability at 1 µM [1]: 100%
viability at 3.2 µM [1]: 100%
inhibition at 0.0001 µM ([3]; 0.0001 μM): 3%
inhibition at 0.00032 µM ([3]; 0.00032 μM): 6%
inhibition at 0.001 µM ([3]; 0.001 μM): 4%
inhibition at 0.0032 µM ([3]; 0.0032 μM): 16%
inhibition at 0.01 µM ([3]; 0.01 μM): 54%
inhibition at 0.032 µM [3]: 97%
inhibition at 0.1 µM [3]: 98%
inhibition at 0.32 µM [3]: 99%
inhibition at 1 µM [3]: 99%
inhibition at 3.2 µM [3]: 100%
